Data reported in US3962316A, “Carbamate” (priority 1972, dated 1976).

How the values were obtained:
Assay type in all cases: in vivo
[1] = system: oriental cockroaches (Blatta orientalis); assay: Contact with treated inner surfaces of 1 liter glass beakers, adult oriental cockroaches
Method: Adult oriental cockroaches (Blatta orientalis) are placed in 1 liter glass beakers whose inner surfaces have been treated with acetonic solutions of the active ingredients. The action is determined after 48 hours.

[2] = system: houseflies (Musca domestica); settings: after 4 hours
From the text: 1 mm^3 of an acetonic solution of the active ingredients is applied to the ventral abdomen of houseflies (Musca domestica) under slight CO2 narcosis.

[3] = system: caterpillars of the cabbage moth (Plutella maculipennis); assay: Contact action and effect of ingested food on caterpillars of the cabbage moth (dipped cabbage leaves); settings: for Mortality (in words): 0.1% by weight of ingredient in aqueous emulsion
From the text: Contact action and effect of ingested food on caterpillars of the cabbage moth (Plutella maculipennis). Young cabbage leaves are dipped for 3 seconds into aqueous emulsions of the active ingredients. After they have dried they are put into Petri dishes and caterpillars of the cabbage moth are placed on them.

CNC(=O)Oc1ccccc1OC(CCl)OC (stereo not drawn) [Active ingredient 1, o-(α-methoxy-β-chloro)-ethoxyphenyl-N-methylcarbamate]
mortality at 0.05 mg ([1]; 48 h): 100% | LD50 [2]: 0.41 γ/fly | mortality at 0.05 % ([3]; Plutella): 100%

CNC(=O)Oc1ccccc1OC(C)C [III]
LD50 [2]: 1.5 γ/fly | Mortality (in words) [3]: ineffective

CNC(=O)Oc1cccc(C)c1 [II]
mortality at 0.5 mg ([1]; 0.5 mg/breaker, after 48 hours): 100% | Effect on flies (LD50 column, in words) ([2]; 10.0 γ/fly): ineffective | Mortality (in words) [3]: ineffective

CNC(=O)Oc1cccc2ccccc12 [I]
mortality at 0.2 mg ([1]; 48 h): 100% | mortality at 0.1 % ([3]; Plutella): 100%

CCOC(CCl)Oc1ccccc1OC(=O)NC (stereo not drawn) [compound 6]
mortality at 0.02 % ([3]; Plutella): 100%

o-(α-2-chloroethoxy)-ethoxyphenyl-N-methylcarbamate [Example 2]
LD50 [2]: 0.3 γ/fly
